According to patent publication US5258406A, “Sulfonimidamides” (priority 1992, dated 1993):
Where two headings read alike, the source gives them in different places.

What was measured:
Assay type in all cases: in vivo
[1] = system: 6C3HED lymphosarcoma; experiment: animal or person
[2] = system: CA755 adenocarcinoma; settings: IP, DX 10
Method: (§1) The compounds were tested in C3H mice bearing a 6C3HED lymphosarcoma, also known as the Gardner lymphosarcoma (GLS), and in a variety of human tumor xenografts in CD1 nu/nu mice, including CX-1, LX-1, HXGC3, and VRC5. The 6C3HED lymphosarcoma was obtained from the Division of Cancer Treatment, National […] Institute, Tumor Bank, maintained at E. G. and G. Mason Research (Worcester, Mass.). The CX-1 human colon carcinoma and the LX-1 human lung carcinoma xenografts were obtained from the National Cancer Institute. The HXGC3 and VRC5 human colon xenografts were obtained from Dr. P. J. Houghton, St. Jude Children's Hospital in Memphis (see Br. J. Cancer, 37, 213 (1978)). First passage tumor was stored in liquid nitrogen using standard techniques. The transplanted tumor was reestablished from the Tumor Bank every six months or as needed. The tumor was maintained by serial passage twice weekly in C3H mice.
(§2) In the procedure the tumor was removed from passage animals and minced into 1- to 3-mm square fragments using sterile techniques. Tumor pieces were checked for sterility using both Antibiotic Medium 1 and Brain Heart Infusion (Difco, Detroit, Mich.). Recipient mice were shaved and tumor pieces were implanted subcutaneously in the auxiliary region by trocar. Drug therapy on the appropriate schedule was initiated on the day after tumor implant for 6C3HED and after a seven (7) day delay for xenografts (or other delay as noted in Table 2). The compound being tested was mixed with 2.5% Emulphor EL620 from GAF Corporation (1:40 dilution in saline). Food and water were provided ad libitium. The drug was administered orally in 0.5 ml of 2.5% Emulphor (unless otherwise indicated). The tumor was measured the day after treatment ended with two dimensional measurements (width and length) of the tumor taken using automated digital calipers interfaced to a microcomputer. Approximate weight for the tumor was calculated using the following formula [Worzalla, J. F., et al., Invest. New Drugs, 8, 241 (1990], (tumor weight in mg)=(width in mm)^2 ×(length in mm)/2.
(§3) At least one control group of an equal number of mice was treated with the same volume of 2.5% Emulphor only. The percent inhibition was determined by subtracting the ratio of the mean tumor size of the test group relative to the control group from one and multiplying the result times 100.
(§4) The results of several experiments in mice bearing a 6C3HED lymphosarcoma (or other tumor where indicated) when the indicated compounds were administered are provided in Table 2. In Table 2, column 1 gives the Example number of the compound used, column 2 lists the dose level in mg/kg, column 3 provides the percent inhibition of tumor growth, column 4 gives the number of mice which died relative to the total number of animals in the group, column 5 gives the method of administration of the compound, and column 6 gives the dosage schedule. The protocol used with other tumors was the same as with the 6C3HED lymphosarcoma.
(h) Tumor type CA755 adenocarcinoma

[3] = system: ELC2; experiment: Inhibition of ELC2 tumor growth in mice; settings: IP, DX 10
Method: as §1, §2, §3, §4

[4] = system: M5 Ovarian Carcinoma; settings: IP, DX 10, from day 5 after implant
Method: as §1, §2, §3, §4
(n) Tumor type M5 Ovarian Carcinoma

[5] = system: X5563 Plasma Cell Myeloma; settings: IP, DX 10
Method: as §1, §2, §3, §4
(p) Tumor type X5563 Plasma Cell Myeloma

Cc1ccc(S(=N)(=O)NC(=O)Nc2ccc(Cl)cc2)cc1C (stereo not drawn) [Example 36, N-[[(4-chlorophenyl)amino]carbonyl]-3,4-dimethylbenzenesulfonimidamide]
Tox/Tot (mice which died / total) ([1]; IP, 0.25 mg/kg, BIDX 8): 0/10
Tox/Tot (mice which died / total) ([1]; IP, 0.5 mg/kg, BIDX 8): 0/10
Tox/Tot (mice which died / total) ([1]; IP, 1 mg/kg, BIDX 8): 0/10
Tox/Tot (mice which died / total) ([1]; IP, 2 mg/kg, BIDX 8): 0/10
Tox/Tot (mice which died / total) ([1]; IP, 3.125 mg/kg, DX 8): 0/10
Tox/Tot (mice which died / total) ([1]; IP, 4 mg/kg, BIDX 8): 0/10
Tox/Tot (mice which died / total) ([1]; IP, 6.25 mg/kg, DX 8): 0/10
Tox/Tot (mice which died / total) ([1]; IP, 12.5 mg/kg, DX 8): 1/10
Tox/Tot (mice which died / total) ([1]; IP, 12.5 mg/kg, Days 1, 3, 5, 7): 0/10
Tox/Tot (mice which died / total) ([1]; IP, 25 mg/kg, DX 8): 2/10
Tox/Tot (mice which died / total) ([1]; IP, 25 mg/kg, Days 1, 3, 5, 7): 0/10
Tox/Tot (mice which died / total) ([1]; IP, 50 mg/kg, DX 8): 6/10
Tox/Tot (mice which died / total) ([1]; IP, 50 mg/kg, Days 1, 3, 5, 7): 0/10
Tox/Tot (mice which died / total) ([1]; IP, 100 mg/kg, Days 1, 3, 5, 7): 3/10
inhibition in vivo at 0.25 mg/kg ([1]; Mus musculus, 6C3HED, ip, read-out: % inhibition of tumor growth, IP, 0.25 mg/kg, BIDX 8): 16%
inhibition in vivo at 0.5 mg/kg ([1]; Mus musculus, 6C3HED, ip, read-out: % inhibition of tumor growth, IP, 0.5 mg/kg, BIDX 8): 29%
inhibition in vivo at 1 mg/kg ([1]; Mus musculus, 6C3HED, ip, read-out: % inhibition of tumor growth, IP, 1 mg/kg, BIDX 8): 43%
inhibition in vivo at 2 mg/kg ([1]; Mus musculus, 6C3HED, ip, read-out: % inhibition of tumor growth, IP, 2 mg/kg, BIDX 8): 75%
inhibition in vivo at 3.125 mg/kg ([1]; Mus musculus, 6C3HED, ip, read-out: % inhibition of tumor growth, IP, 3.125 mg/kg, DX 8): 74%
inhibition in vivo at 4 mg/kg ([1]; Mus musculus, 6C3HED, ip, read-out: % inhibition of tumor growth, IP, 4 mg/kg, BIDX 8): 97%
inhibition in vivo at 6.25 mg/kg ([1]; Mus musculus, 6C3HED, ip, read-out: % inhibition of tumor growth, IP, 6.25 mg/kg, DX 8): 93%
inhibition in vivo at 12.5 mg/kg ([1]; Mus musculus, 6C3HED, ip, read-out: % inhibition of tumor growth, IP, 12.5 mg/kg, DX 8): 98%
inhibition in vivo at 12.5 mg/kg ([1]; Mus musculus, 6C3HED, ip, read-out: % inhibition of tumor growth, IP, 12.5 mg/kg, Days 1, 3, 5, 7): 88%
inhibition in vivo at 25 mg/kg ([1]; Mus musculus, 6C3HED, ip, read-out: % inhibition of tumor growth, IP, 25 mg/kg, DX 8): 100%
inhibition in vivo at 25 mg/kg ([1]; Mus musculus, 6C3HED, ip, read-out: % inhibition of tumor growth, IP, 25 mg/kg, Days 1, 3, 5, 7): 99%
inhibition in vivo at 50 mg/kg ([1]; Mus musculus, 6C3HED, ip, read-out: % inhibition of tumor growth, IP, 50 mg/kg, DX 8): 100%
inhibition in vivo at 50 mg/kg ([1]; Mus musculus, 6C3HED, ip, read-out: % inhibition of tumor growth, IP, 50 mg/kg, Days 1, 3, 5, 7): 99%
inhibition in vivo at 100 mg/kg ([1]; Mus musculus, 6C3HED, ip, read-out: % inhibition of tumor growth, IP, 100 mg/kg, Days 1, 3, 5, 7): 100%
inhibition in vivo at 6.25 mg/kg ([1]; Mus musculus, 6C3HED, po, read-out: % inhibition of tumor growth, oral, 6.25 mg/kg, BIDX 8): 100%
inhibition in vivo at 12.5 mg/kg ([1]; Mus musculus, 6C3HED, po, read-out: % inhibition of tumor growth, oral, 12.5 mg/kg, BIDX 8): 100%
inhibition in vivo at 25 mg/kg ([1]; Mus musculus, 6C3HED, po, read-out: % inhibition of tumor growth, oral, 25 mg/kg, BIDX 8): 100%
inhibition in vivo at 50 mg/kg ([1]; Mus musculus, 6C3HED, po, read-out: % inhibition of tumor growth, oral, 50 mg/kg, BIDX 8): 100%
inhibition in vivo at 150 mg/kg ([1]; Mus musculus, 6C3HED, po, read-out: % inhibition of tumor growth, oral, 150 mg/kg, BIDX 8): 99%
Tox/Tot (mice which died / total) ([1]; oral, 6.25 mg/kg, BIDX 8): 2/8
Tox/Tot (mice which died / total) ([1]; oral, 12.5 mg/kg, BIDX 8): 5/8
Tox/Tot (mice which died / total) ([1]; oral, 25 mg/kg, BIDX 8): 2/8
Tox/Tot (mice which died / total) ([1]; oral, 50 mg/kg, BIDX 8): 7/8
% inhibition of tumor growth ([1]; oral, 100 mg/kg, BIDX 8): TOX
Tox/Tot (mice which died / total) ([1]; oral, 100 mg/kg, BIDX 8): 8/8
Tox/Tot (mice which died / total) ([1]; oral, 150 mg/kg, BIDX 8): 6/10
% inhibition of tumor growth ([1]; oral, 300 mg/kg, BIDX 8): TOX
Tox/Tot (mice which died / total) ([1]; oral, 300 mg/kg, BIDX 8): 10/10
% inhibition of tumor growth ([2]; 3.75 mg/kg): 26%
Tox/Tot (mice which died / total) ([2]; 3.75 mg/kg): 0/10
% inhibition of tumor growth ([2]; 7.5 mg/kg): 1%
Tox/Tot (mice which died / total) ([2]; 7.5 mg/kg): 0/10
% inhibition of tumor growth ([2]; 15 mg/kg): 42%
Tox/Tot (mice which died / total) ([2]; 15 mg/kg): 0/10
% inhibition of tumor growth ([2]; 30 mg/kg): 72%
Tox/Tot (mice which died / total) ([2]; 30 mg/kg): 0/10
% inhibition of tumor growth ([3]; 7.5 mg/kg): 0%
Tox/Tot (mice which died / total) ([3]; 7.5 mg/kg): 0/10
% inhibition of tumor growth ([3]; 15 mg/kg): 3%
Tox/Tot (mice which died / total) ([3]; 15 mg/kg): 0/10
% inhibition of tumor growth ([3]; 30 mg/kg): TOX
Tox/Tot (mice which died / total) ([3]; 30 mg/kg): 10/10
% inhibition of tumor growth ([4]; 3.75 mg/kg): 10%
Tox/Tot (mice which died / total) ([4]; 3.75 mg/kg): 0/10
% inhibition of tumor growth ([4]; 7.5 mg/kg): 19%
Tox/Tot (mice which died / total) ([4]; 7.5 mg/kg): 0/10
% inhibition of tumor growth ([4]; 15 mg/kg): 47%
Tox/Tot (mice which died / total) ([4]; 15 mg/kg): 0/10
% inhibition of tumor growth ([4]; 30 mg/kg): 38%
Tox/Tot (mice which died / total) ([4]; 30 mg/kg): 1/10
% inhibition of tumor growth ([5]; 3.75 mg/kg): 35%
Tox/Tot (mice which died / total) ([5]; 3.75 mg/kg): 0/10
% inhibition of tumor growth ([5]; 7.5 mg/kg): 63%
Tox/Tot (mice which died / total) ([5]; 7.5 mg/kg): 1/10
% inhibition of tumor growth ([5]; 15 mg/kg): 88%
Tox/Tot (mice which died / total) ([5]; 15 mg/kg): 4/10
% inhibition of tumor growth ([5]; 30 mg/kg): 97%
Tox/Tot (mice which died / total) ([5]; 30 mg/kg): 3/10
